According to patent publication US20190367448A1, “TREATMENT OF SLEEP-WAKE DISORDERS” (SK Biopharmaceuticals Co., Ltd., priority 2005, published 2019):

Test system: male adult Sprague Dawley rats
Experiment: Sleep-wake organization in rats, polysomnographic recording (EEG, EOG, EMG, body movement) for 16 hours after acute i.p. administration
Format: in vivo, rat
Details: rats; for Duration (min) Active wake / Duration (min) Deep sleep / Duration (min) Light sleep / Duration (min) Passive wake / Duration (min) REM sleep / Duration (min) intermediate stage / ISWS/TST (%) / Latency (min) ISWS / Latency (min) REM sleep / Latency (min) dSWS / REMS/TST (%) / Shifts (number) Shift from ISWS to AW / Shifts (number) Shift from ISWS to PW / Shifts (number) Shift from REMS to AW / Shifts (number) Shift from REMS to PW / Shifts (number) Shift from dSWS to AW / Shifts (number) Shift from dSWS to PW / Total sleep time TST / dSWS/TST (%): 16 hours recording period; for change in number of active wakefulness epochs / change in number of deep sleep epochs / change in number of light sleep epochs / change in duration of active wakefulness / change in time spent in deep sleep / change in time spent in light sleep / change in number of REM sleep epochs / change in duration of REM sleep: 10 mg/kg
[1] = highest dose tested, 16 hours recording

COC(=O)[C@H]1[C@@H](OC(=O)c2ccccc2)C[C@@H]2CC[C@H]1N2C [Cocaine, cocaine]
Duration (min) Active wake (1 mg/kg i.p.): 331.5 min
Duration (min) Deep sleep (1 mg/kg i.p.): 162.9 min
Duration (min) Light sleep (1 mg/kg i.p.): 293.2 min
Duration (min) Passive wake (1 mg/kg i.p.): 69.8 min
Duration (min) REM sleep (1 mg/kg i.p.): 84.2 min
Duration (min) intermediate stage (1 mg/kg i.p.): 6.7 min
ISWS/TST (%) (1 mg/kg i.p.): 51.8 ± 4.5%
Latency (min) ISWS (1 mg/kg i.p.): 69.9 ± 51.2 min
Latency (min) REM sleep (1 mg/kg i.p.): 74.3 ± 12.1 min
Latency (min) dSWS (1 mg/kg i.p.): 79.3 ± 26.7 min
REMS/TST (%) (1 mg/kg i.p.): 15.4 ± 0.9%
Shifts (number) Shift from ISWS to AW (1 mg/kg i.p.): 184.1 number
Shifts (number) Shift from ISWS to PW (1 mg/kg i.p.): 128.6 number
Shifts (number) Shift from REMS to AW (1 mg/kg i.p.): 74.5 number
Shifts (number) Shift from REMS to PW (1 mg/kg i.p.): 17.0 number
Shifts (number) Shift from dSWS to AW (1 mg/kg i.p.): 10.1 number
Shifts (number) Shift from dSWS to PW (1 mg/kg i.p.): 66.6 number
Total sleep time TST (1 mg/kg i.p.): 547.0 ± 51.5 min
dSWS/TST (%) (1 mg/kg i.p.): 31.2 ± 4.8%
Duration (min) Active wake (3 mg/kg i.p.): 324.8 min
Duration (min) Deep sleep (3 mg/kg i.p.): 172.6 min
Duration (min) Light sleep (3 mg/kg i.p.): 303.2 min
Duration (min) Passive wake (3 mg/kg i.p.): 66.7 min
Duration (min) REM sleep (3 mg/kg i.p.): 76.7 min
Duration (min) intermediate stage (3 mg/kg i.p.): 5.7 min
ISWS/TST (%) (3 mg/kg i.p.): 53.8 ± 6.3%
Latency (min) ISWS (3 mg/kg i.p.): 41.5 ± 9.2 min
Latency (min) REM sleep (3 mg/kg i.p.): 112.0 ± 12.2 min
Latency (min) dSWS (3 mg/kg i.p.): 68.6 ± 7.6 min
REMS/TST (%) (3 mg/kg i.p.): 13.8 ± 1.1%
Shifts (number) Shift from ISWS to AW (3 mg/kg i.p.): 218.5 number
Shifts (number) Shift from ISWS to PW (3 mg/kg i.p.): 142.2 number
Shifts (number) Shift from REMS to AW (3 mg/kg i.p.): 56.0 number
Shifts (number) Shift from REMS to PW (3 mg/kg i.p.): 10.7 number
Shifts (number) Shift from dSWS to AW (3 mg/kg i.p.): 10.2 number
Shifts (number) Shift from dSWS to PW (3 mg/kg i.p.): 64.5 number
Total sleep time TST (3 mg/kg i.p.): 558.2 ± 21.2 min
dSWS/TST (%) (3 mg/kg i.p.): 31.4 ± 6.1%
Duration (min) Active wake (10 mg/kg i.p.): 347.3 min
Duration (min) Deep sleep (10 mg/kg i.p.): 171.9 min
Duration (min) Light sleep (10 mg/kg i.p.): 294.6 min
Duration (min) Passive wake (10 mg/kg i.p.): 55.0 min
Duration (min) REM sleep (10 mg/kg i.p.): 74.7 min
Duration (min) intermediate stage (10 mg/kg i.p.): 6.3 min
ISWS/TST (%) (10 mg/kg i.p.): 53.8 ± 4.0%
Latency (min) ISWS (10 mg/kg i.p.): 101.8 ± 6.9 min
Latency (min) REM sleep (10 mg/kg i.p.): 192.1 ± 18.5 min
Latency (min) dSWS (10 mg/kg i.p.): 138.8 ± 8.7 min
REMS/TST (%) (10 mg/kg i.p.): 13.8 ± 1.5%
Shifts (number) Shift from ISWS to AW (10 mg/kg i.p.): 201.2 number
Shifts (number) Shift from ISWS to PW (10 mg/kg i.p.): 132.6 number
Shifts (number) Shift from REMS to AW (10 mg/kg i.p.): 52.3 number
Shifts (number) Shift from REMS to PW (10 mg/kg i.p.): 9.2 number
Shifts (number) Shift from dSWS to AW (10 mg/kg i.p.): 10.4 number
Shifts (number) Shift from dSWS to PW (10 mg/kg i.p.): 37.6 number
Total sleep time TST (10 mg/kg i.p.): 547.6 ± 18.2 min
dSWS/TST (%) (10 mg/kg i.p.): 31.3 ± 4.2%
change in number of active wakefulness epochs (0.5 h): +111%
change in number of deep sleep epochs (0.5 h): −100%
change in number of light sleep epochs (0.5 h): −100%
change in duration of active wakefulness (0.5 h after treatment): +111%
change in time spent in deep sleep (0.5 h after treatment): 90%
change in time spent in light sleep (0.5 h after treatment): −100%
change in number of REM sleep epochs (0.5 hr): −100%
change in duration of REM sleep (0.5 hr after administration): −100%
change in number of active wakefulness epochs (1 h): +500%
change in duration of active wakefulness (1 h after treatment): +500%
change in time spent in deep sleep (1 h after treatment): −100%
change in time spent in light sleep (1 h after treatment): −99%
change in number of REM sleep epochs (1 hr): −100%
change in number of deep sleep epochs (1 hr): −100%
change in number of light sleep epochs (1 hr): −99%
change in duration of REM sleep (1 hr after administration): −100%
change in number of deep sleep epochs (1.5 h): −100%
change in number of light sleep epochs (1.5 h): −87%
change in number of REM sleep epochs (1.5 hr): −100%
change in number of active wakefulness epochs (1.5 hr): +312%
change in duration of REM sleep (1.5 hr after administration): −100%
change in duration of active wakefulness (1.5 hr after treatment): +312%
change in time spent in deep sleep (1.5 hr after treatment): −99%
change in time spent in light sleep (1.5 hr after treatment): −87%
change in number of active wakefulness epochs (2 h): +119%
change in duration of active wakefulness (2 h after treatment): +120%
change in time spent in deep sleep (2 h after treatment): −70%
change in time spent in light sleep (2 h after treatment): −25%
change in number of REM sleep epochs (2 hr): −87%
change in number of deep sleep epochs (2 hr): −38%
change in number of light sleep epochs (2 hr): −22%
change in duration of REM sleep (2 hr after administration): −87%
change in number of REM sleep epochs (2.5 hr): −47%
change in number of active wakefulness epochs (2.5 hr): +166%
change in duration of REM sleep (2.5 hr after administration): −47%
change in duration of active wakefulness (2.5 hr after treatment): +166%
change in number of REM sleep epochs (3 hr): −78%
change in number of active wakefulness epochs (3 hr): +77%
change in duration of REM sleep (3 hr after administration): −78%
change in duration of active wakefulness (3 hr after treatment): +77%
decrease in total time spent in REM sleep [1]: −18%
increase in total duration of active wakefulness [1]: +14%
